Test results: the NIST ThermoML archive (doi:10.1016/j.fluid.2010.05.001)
Numbers after ± are expanded uncertainties.

Tests used:
[1] = xn = mol fraction of the nth substance listed; details: 101 kPa, Liquid, Vibrating tube method
[2] = 101.33 kPa, Liquid, Vibrating tube method

CN1CCCCC1 [N-methylpiperidine] + O
[1]
Details | mass density [kg/m3]
288.15 K, x1 = 0.0101 | 994.829 ± 0.29
288.15 K, x1 = 0.0728 | 966.82 ± 0.29
288.15 K, x1 = 0.0971 | 957.332 ± 0.25
288.15 K, x1 = 0.1499 | 939.294 ± 0.22
288.15 K, x1 = 0.2452 | 913.306 ± 0.2
288.15 K, x1 = 0.3359 | 895.82 ± 0.19
288.15 K, x1 = 0.3895 | 886.349 ± 0.18
288.15 K, x1 = 0.55 | 863.074 ± 0.2
288.15 K, x1 = 0.66 | 850.384 ± 0.2
288.15 K, x1 = 0.7 | 846.317 ± 0.21
288.15 K, x1 = 0.8 | 836.071 ± 0.22
288.15 K, x1 = 0.9 | 828.075 ± 0.23
298.15 K, x1 = 0.0133 | 990.926 ± 0.29
298.15 K, x1 = 0.0248 | 985.215 ± 0.31
298.15 K, x1 = 0.0299 | 982.27 ± 0.24
298.15 K, x1 = 0.0728 | 960.309 ± 0.32
298.15 K, x1 = 0.0971 | 949.172 ± 0.25
298.15 K, x1 = 0.19 | 917.46 ± 0.23
298.15 K, x1 = 0.2452 | 903.811 ± 0.19
298.15 K, x1 = 0.3359 | 884.947 ± 0.19
298.15 K, x1 = 0.4036 | 873.347 ± 0.19
298.15 K, x1 = 0.453 | 865.779 ± 0.19
298.15 K, x1 = 0.4767 | 862.238 ± 0.19
298.15 K, x1 = 0.505 | 858.158 ± 0.19
298.15 K, x1 = 0.595 | 846.184 ± 0.2
298.15 K, x1 = 0.6987 | 835.141 ± 0.21
298.15 K, x1 = 0.7907 | 826.047 ± 0.22
298.15 K, x1 = 0.8822 | 819.375 ± 0.23
308.15 K, x1 = 0.0133 | 987.229 ± 0.3
308.15 K, x1 = 0.0153 | 986.286 ± 0.3
308.15 K, x1 = 0.0248 | 980.469 ± 0.4
308.15 K, x1 = 0.0299 | 976.97 ± 0.42
308.15 K, x1 = 0.0728 | 952.068 ± 0.35
308.15 K, x1 = 0.0971 | 941.377 ± 0.29
308.15 K, x1 = 0.1972 | 908.857 ± 0.2
308.15 K, x1 = 0.391 | 866.58 ± 0.2
308.15 K, x1 = 0.4972 | 849.931 ± 0.19
308.15 K, x1 = 0.57 | 840.165 ± 0.19
308.15 K, x1 = 0.6987 | 825.724 ± 0.21
308.15 K, x1 = 0.78 | 818.342 ± 0.21
318.15 K, x1 = 0.00418 | 987.683 ± 0.34
318.15 K, x1 = 0.00896 | 985.125 ± 0.35
318.15 K, x1 = 0.0153 | 981.488 ± 0.36
318.15 K, x1 = 0.018 | 979.939 ± 0.41
318.15 K, x1 = 0.02 | 978.288 ± 0.41
318.15 K, x1 = 0.15 | 912.237 ± 0.32
318.15 K, x1 = 0.1972 | 896.689 ± 0.21
318.15 K, x1 = 0.3 | 874.067 ± 0.2
318.15 K, x1 = 0.4972 | 840.492 ± 0.19
318.15 K, x1 = 0.66 | 821.213 ± 0.2
318.15 K, x1 = 0.85 | 804 ± 0.23
328.15 K, x1 = 0.00418 | 983.308 ± 0.37
328.15 K, x1 = 0.00896 | 980.507 ± 0.37
328.15 K, x1 = 0.01 | 979.617 ± 0.37
328.15 K, x1 = 0.0133 | 977.934 ± 0.33
328.15 K, x1 = 0.3823 | 848.444 ± 0.25
328.15 K, x1 = 0.545 | 824.697 ± 0.19
328.15 K, x1 = 0.7049 | 807.305 ± 0.21
328.15 K, x1 = 0.795 | 800.206 ± 0.21
328.15 K, x1 = 0.945 | 790.511 ± 0.24

CC1CCCCN1 (stereo unspecified) [2-methylpiperidine]
[2]
Details | mass density [kg/m3] | molar volume [m3/mol]
288.15 K | 846.703 ± 0.24 | 0.0001171 ± 9e-08
298.15 K | 835.787 ± 0.24 | 0.0001187 ± 9e-08
308.15 K | 826.08 ± 0.24 | 0.0001201 ± 9e-08
318.15 K | 817.349 ± 0.24 | 0.0001213 ± 9e-08
328.15 K | 809.08 ± 0.24 | 0.0001226 ± 9e-08
338.15 K | 801.96 ± 0.24 | 0.0001237 ± 9e-08

CN1CCCCC1 [N-methylpiperidine]
[2]
Details | mass density [kg/m3] | molar volume [m3/mol]
288.15 K | 822.237 ± 0.24 | 0.0001206 ± 4e-08
298.15 K | 810.887 ± 0.24 | 0.0001223 ± 5e-08
308.15 K | 803.846 ± 0.24 | 0.0001234 ± 5e-08
318.15 K | 796.931 ± 0.24 | 0.0001244 ± 5e-08
328.15 K | 785.64 ± 0.24 | 0.0001262 ± 5e-08
338.15 K | 781.618 ± 0.24 | 0.0001269 ± 5e-08

CC1CCCCN1 (stereo unspecified) [2-methylpiperidine] + O
[1]
Details | mass density [kg/m3]
288.15 K, x1 = 0.022 | 992.158 ± 0.24
288.15 K, x1 = 0.0488 | 982.491 ± 0.24
288.15 K, x1 = 0.0966 | 965.22 ± 0.22
288.15 K, x1 = 0.1901 | 940.03 ± 0.19
288.15 K, x1 = 0.3019 | 918.147 ± 0.18
288.15 K, x1 = 0.4006 | 904.274 ± 0.18
288.15 K, x1 = 0.47 | 896.239 ± 0.18
288.15 K, x1 = 0.59 | 883.489 ± 0.19
288.15 K, x1 = 0.685 | 874.59 ± 0.2
288.15 K, x1 = 0.775 | 866.186 ± 0.21
288.15 K, x1 = 0.813 | 863.581 ± 0.22
298.15 K, x1 = 0.0506 | 976.147 ± 0.27
298.15 K, x1 = 0.0951 | 957.78 ± 0.22
298.15 K, x1 = 0.1955 | 930.75 ± 0.2
298.15 K, x1 = 0.288 | 911.236 ± 0.18
298.15 K, x1 = 0.3958 | 894.275 ± 0.18
298.15 K, x1 = 0.45 | 886.977 ± 0.18
298.15 K, x1 = 0.4708 | 884.952 ± 0.17
298.15 K, x1 = 0.5925 | 871.352 ± 0.19
298.15 K, x1 = 0.7 | 860.793 ± 0.2
298.15 K, x1 = 0.8043 | 851.545 ± 0.21
308.15 K, x1 = 0.0506 | 969.86 ± 0.28
308.15 K, x1 = 0.0951 | 951.024 ± 0.23
308.15 K, x1 = 0.1955 | 921.38 ± 0.2
308.15 K, x1 = 0.288 | 902.606 ± 0.18
308.15 K, x1 = 0.388 | 886.089 ± 0.18
308.15 K, x1 = 0.463 | 875.982 ± 0.18
308.15 K, x1 = 0.585 | 861.756 ± 0.19
308.15 K, x1 = 0.6501 | 855.347 ± 0.2
318.15 K, x1 = 0.0506 | 963.421 ± 0.29
318.15 K, x1 = 0.0951 | 943.575 ± 0.24
318.15 K, x1 = 0.1955 | 912.95 ± 0.21
318.15 K, x1 = 0.288 | 893.567 ± 0.18
318.15 K, x1 = 0.388 | 876.681 ± 0.18
318.15 K, x1 = 0.463 | 866.663 ± 0.18
318.15 K, x1 = 0.585 | 852.312 ± 0.19
318.15 K, x1 = 0.6501 | 846.574 ± 0.2
328.15 K, x1 = 0.05 | 957.601 ± 0.3
328.15 K, x1 = 0.0982 | 935.269 ± 0.32
328.15 K, x1 = 0.3019 | 883.044 ± 0.2
328.15 K, x1 = 0.4006 | 867.078 ± 0.18
328.15 K, x1 = 0.4585 | 859.202 ± 0.18
328.15 K, x1 = 0.5699 | 846.009 ± 0.19
328.15 K, x1 = 0.6591 | 836.942 ± 0.2
328.15 K, x1 = 0.775 | 826.192 ± 0.21
338.15 K, x1 = 0.0951 | 926.141 ± 0.23
338.15 K, x1 = 0.1901 | 897.2 ± 0.2
338.15 K, x1 = 0.3019 | 873.469 ± 0.19
338.15 K, x1 = 0.365 | 863.604 ± 0.18
338.15 K, x1 = 0.4585 | 850.39 ± 0.18
338.15 K, x1 = 0.5925 | 834.463 ± 0.19
338.15 K, x1 = 0.8043 | 816.519 ± 0.22
